One may read the IC50 as the concentration needed to halve the response being measured. Lower therefore signals greater potency.

Where only a bound is given, the exact number is not on record here.

For this assay, the target named is T1, RORγt ligand-binding domain (RORγt-LBD) (Homo sapiens, UniProt P51449).
T1 construct: 20 nM recombinantly expressed RORγ-LBD fused to GST
T1 sequence (P51449 269-508 limits assumed): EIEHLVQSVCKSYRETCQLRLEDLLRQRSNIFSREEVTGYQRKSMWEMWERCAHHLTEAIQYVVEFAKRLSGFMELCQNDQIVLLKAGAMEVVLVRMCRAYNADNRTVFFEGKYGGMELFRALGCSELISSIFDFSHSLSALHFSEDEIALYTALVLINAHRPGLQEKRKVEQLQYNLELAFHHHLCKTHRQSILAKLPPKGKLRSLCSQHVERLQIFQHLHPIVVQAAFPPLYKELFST
Put plainly: Time-resolved FRET (TR-FRET) RORγt coactivator assay. The assay is classed as biochemical. As to conditions: GST-RORγ-LBD, biotinylated RIP140 peptide, coactivator displacement. On the technique in general: In TR-FRET formats the signal depends on donor and acceptor labels being close together.
As to `CC(C)CC(NC(=O)Cc1ccc2[nH]cc(CCC(=O)O)c2c1)c1ccc(Br)cc1N1CCCC1` (stereo not drawn) [compound 182, 3-{5-[({1-[4-bromo-2-(pyrrolidin-1-yl)phenyl]-3-methylbutyl}carbamoyl)methyl]-1H-indol-3-yl}propanoic acid], the IC50 is less than 1000 nM. `Cc1ccc(C(NC(=O)Cc2ccc3[nH]cc(CCC(=O)O)c3c2)c2ccc(C)s2)c(C)c1` (stereo not drawn) [compound 101, 3-[5-({[(2,4-dimethylphenyl)(5-methylthiophen-2-yl)methyl]carbamoyl}methyl)-1H-indol-3-yl]propanoic acid] yielded an IC50 of less than 1000 nM. The figure for `CN(C)Cc1ccccc1C(NC(=O)Cc1ccc2[nH]cc(CCC(=O)OC(C)(C)C)c2c1)c1ccccc1` (stereo not drawn) [compound 121, tert-butyl 3-(5-{[({2-[(dimethylamino)methyl]phenyl}(phenyl)methyl)carbamoyl]methyl}-1H-indol-3-yl)propanoate] is 1000 to 10000 nM; for `CC(C)CC(NC(=O)Cc1ccc2[nH]cc(CCC(=O)OC(C)(C)C)c2c1)c1ccccc1N1CCOCC1` (stereo not drawn) [Cpd. 57, tert-butyl 3-{5-[({3-methyl-1-[2-(morpholin-4-yl)phenyl]butyl}carbamoyl)methyl]-1H-indol-3-yl}propanoate] it is 1000 to 10000 nM; for `CC(C)CCC(NC(=O)Cc1ccc2[nH]cc(CCC(=O)O)c2c1)c1ccccc1N1CCCCC1` (stereo not drawn) [compound 245, 3-{5-[({4-methyl-1-[2-(piperidin-1-yl)phenyl]pentyl}carbamoyl)methyl]-1H-indol-3-yl}propanoic acid] it is less than 1000 nM. The figure for `O=C(O)Cc1c[nH]c2ccc(CC(=O)NC(c3ccccc3)c3ccc(C(F)(F)F)cc3N3CCCC3)cc12` (stereo not drawn) [compound 89, 2-{5-[({phenyl[2-(pyrrolidin-1-yl)-4-(trifluoromethyl)phenyl]methyl}carbamoyl)methyl]-1H-indol-3-yl}acetic acid] is less than 1000 nM; for `COC(=O)Cc1c[nH]c2ccc(CC(=O)NC(c3ncccn3)c3ccc(C)cc3Br)cc12` (stereo not drawn) [Cpd. 256, methyl 2-[5-({[(2-bromo-4-methylphenyl)(pyrimidin-2-yl)methyl]carbamoyl}methyl)-1H-indol-3-yl]acetate] it is 1000 to 10000 nM; for `CC(C)(C)OC(=O)NC(=N)NC(=O)CCc1c[nH]c2ccc(CC(=O)NC(c3ccccc3)c3ccccc3N3CCCCC3)cc12` (stereo not drawn) [Cpd. 234, tert-butyl N-[(3-{5-[({phenyl[2-(piperidin-1-yl)phenyl]methyl}carbamoyl)methyl]-1H-indol-3-yl}propanamido)methanimidoyl]carbamate] it is 1000 to 10000 nM. `CC(C)(C)OC(=O)CCc1c[nH]c2ncc(NC(=O)NC(c3ccccc3)c3ccccc3N3CCCCC3)cc12` (stereo not drawn) [Cpd. 94, tert-butyl 3-{5-[({phenyl[2-(piperidin-1-yl)phenyl]methyl}carbamoyl)amino]-1H-pyrrolo[2,3-b]pyridin-3-yl}propanoate] yielded an IC50 of 1000 to 10000 nM. The molecule `COC(=O)Cc1c[nH]c2ccc(CC(=O)NC(c3ccccc3)c3ccccc3N3CCCC3)cc12` (stereo not drawn) [Cpd. 72, methyl 2-{5-[({phenyl[2-(pyrrolidin-1-yl)phenyl]methyl}carbamoyl)methyl]-1H-indol-3-yl}acetate] returned a half-maximal inhibitory concentration (IC50) of less than 1000 nM. Then `Cc1ccc(C(CC(C)C)NC(=O)Cc2ccc3[nH]cc(CCC(=O)O)c3c2)c(N(C)C)c1` (stereo not drawn) [compound 134, 3-{5-[({1-[2-(dimethylamino)-4-methylphenyl]-3-methylbutyl}carbamoyl)methyl]-1H-indol-3-yl}propanoic acid], with less than 1000 nM.

As for `O=C(O)Cc1c[nH]c2ccc(CC(=O)NC(c3ccccc3)c3cc(Cl)ccc3N3CCCCC3)cc12` (stereo not drawn) [compound 166, 2-{5-[({[5-chloro-2-(piperidin-1-yl)phenyl](phenyl)methyl}carbamoyl)methyl]-1H-indol-3-yl}acetic acid], the IC50 lay in the range of 1000 to 10000 nM. Then `Cc1ccc(C(NC(=O)Cc2ccc3[nH]cc(CCC(=O)OC(C)(C)C)c3c2)c2ccccc2)c2[nH]ccc12` (stereo not drawn) [Cpd. 228, tert-butyl 3-[5-({[(4-methyl-1H-indol-7-yl)(phenyl)methyl]carbamoyl}methyl)-1H-indol-3-yl]propanoate], with 1000 to 10000 nM; and `CCOc1ccccc1C(CC(C)C)NC(=O)Cc1ccc2[nH]cc(CCC(=O)O)c2c1` (stereo not drawn) [compound 243, 3-[5-({[1-(2-ethoxyphenyl)-3-methylbutyl]carbamoyl}methyl)-1H-indol-3-yl]propanoic acid], with less than 1000 nM; and `Cc1ccc(Cl)c(C(NC(=O)Cc2ccc3[nH]cc(CCC(=O)O)c3c2)c2ccccc2)c1` (stereo not drawn) [compound 42, 3-[5-({[(2-chloro-5-methylphenyl)(phenyl)methyl]carbamoyl}methyl)-1H-indol-3-yl]propanoic acid], with less than 1000 nM. Then `COC(=O)Cc1c[nH]c2ccc(CC(=O)NC(c3ccccc3)c3ccccc3N(C)C)cc12` (stereo not drawn) [Cpd. 70, methyl 2-{5-[({[2-(dimethylamino)phenyl](phenyl)methyl}carbamoyl)methyl]-1H-indol-3-yl}acetate], with less than 1000 nM; and `Cc1ccc(N2CCCCC2)c(C(NC(=O)Cc2ccc3[nH]cc(CCC(=O)OC(C)(C)C)c3c2)c2ccccc2)c1` (stereo not drawn) [Cpd. 113, tert-butyl 3-{5-[({[5-methyl-2-(piperidin-1-yl)phenyl](phenyl)methyl}carbamoyl)methyl]-1H-indol-3-yl}propanoate], with 1000 to 10000 nM. Then `CC(C)CC(NC(=O)Cc1ccc2[nH]cc(CCC(=O)OC(C)(C)C)c2c1)c1cccc2ccccc12` (stereo not drawn) [Cpd. 104, tert-butyl 3-[5-({[3-methyl-1-(naphthalen-1-yl)butyl]carbamoyl}methyl)-1H-indol-3-yl]propanoate], with 1000 to 10000 nM; and `COc1cc(C)ccc1C(NC(=O)Cc1ccc2[nH]cc(CCC(=O)O)c2c1)c1ccccc1` (stereo not drawn) [compound 99, 3-[5-({[(2-methoxy-4-methylphenyl)(phenyl)methyl]carbamoyl}methyl)-1H-indol-3-yl]propanoic acid], with less than 1000 nM; and `COC(=O)Cc1c[nH]c2ccc(CC(=O)NC(c3ccccc3)c3ccc(C)cc3Br)cc12` (stereo not drawn) [Cpd. 220, methyl 2-[5-({[(2-bromo-4-methylphenyl)(phenyl)methyl]carbamoyl}methyl)-1H-indol-3-yl]acetate], with less than 1000 nM. For `O=C(O)CCC(=O)c1c[nH]c2ccc(CC(=O)NC(c3ccccc3)c3ccccc3N3CCCCC3)cc12` (stereo not drawn) [compound 213, 4-oxo-4-{5-[({phenyl[2-(piperidin-1-yl)phenyl]methyl}carbamoyl)methyl]-1H-indol-3-yl}butanoic acid], the IC50 is less than 1000 nM. The molecule `CC(C)(C)OC(=O)CCc1c[nH]c2ccc(CC(=O)NC(c3ccccc3)c3ccccc3N3CC=CCC3)cc12` (stereo not drawn) [Cpd. 127, tert-butyl 3-{5-[({phenyl[2-(1,2,3,6-tetrahydropyridin-1-yl)phenyl]methyl}carbamoyl)methyl]-1H-indol-3-yl}propanoate] gave an IC50 of 1000 to 10000 nM. The figure for `CC(C)(C)OC(=O)CCc1c[nH]c2ccc(CC(=O)NC3(c4ccccc4N4CCCC4)CCCC3)cc12` [Cpd. 129, tert-butyl 3-{5-[({1-[2-(pyrrolidin-1-yl)phenyl]cyclopentyl}carbamoyl)methyl]-1H-indol-3-yl}propanoate] is 1000 to 10000 nM; for `O=C(Cc1ccc2[nH]cc(C(=O)O)c2c1)NC(c1ccccc1)c1ccccc1N1CCCCC1` (stereo not drawn) [compound 206, 1-(2-{[2-(3-carboxy-1H-indol-5-yl)acetamido](phenyl)methyl}phenyl)piperidin-1-ium chloride] it is 1000 to 10000 nM.

The values above are taken from patent US9902725B2, “Heterocyclic derivatives as RORgamma modulators” (GENFIT, priority 2014, dated 2018).
